Publication PMC6745035, “Novel tetrahydroacridine derivatives with iodobenzoic moieties induce G0/G1 cell cycle arrest and apoptosis in A549 non-small lung cancer and HT-29 colorectal cancer cells” (Molecular and Cellular Biochemistry, 2019)

Experiments:
Format in all cases: cell-based, human
[1] = system: A549 cells; assay: Apoptosis assay by annexin-V/PI double staining, A549; conditions: A549, 24 h, 75 µM; control 7.80%
Description: (§1) Compounds were added to the cells and further incubated for 24 h. After treatment, monolayer and supernatant cells were harvested, washed with PBS and centrifuged (monolayer at 1200 rpm for 10 min, supernatant at 3500 rpm for 10 min). Then, cells were re-suspended in binding buffer and stained with 2 µL of Annexin-V and […] of PI (ANNEXIN-V—FITC Apoptosis Detection Kit, Immunostep) in the dark for 10 min at room temperature. Cells were analysed by BD Accuri C6 Flow Cytometry (Becton–Dickinson). Etoposide (Calbiochem) was used as a reference drug. Experiments were done in triplicates.

[2] = system: A549 cells; assay: MTT cytotoxicity assay, A549; conditions: Homo sapiens, A549, 24 h, MTT, 24 h incubation; read-out: IC50 µM ± SD against A549
Description: A549 cell line (lung carcinoma from human) (European Collection of Cell Culture) and HT-29 cell line (colorectal adenocarcinoma from human) (American Type Culture Collection) were chosen to evaluate the cytotoxicity of novel compounds.
(§2) The MTT assay was used to evaluate cell metabolic activity. The test principle is based on the determination of cell viability by measuring the metabolic activity in mitochondria. Enzymatically active mitochondria reduce the water-soluble MTT (3-(4,5-dimethylthiazol-2-yl)-2,5 diphenyltetrazoliumbromide) to blue–violet insoluble formazan. The number of viability cells is proportional to the colour intensity determined by photometric measurements (an analytical wavelength 570 nm) after dissolving the formazan in Dimethylsulfoxide (DMSO) (Serva) and Sorensen’s glycine buffer. MTT (Sigma Aldrich) was dissolved in Phosphate Buffered Saline (PBS) (PAN-Biotech) at a concentration of 0.5 mg/mL. Sorensen’s glycine buffer is made of 0.1 M glycine and 0.1 M NaCl, at pH 10.5. Studied compounds were dissolved in DMSO in order to receive stock solutions.
(§3) For the assay, cells were seeded into 96-well plates at density 10^4 cells per well and cultured for 24 h at 37 °C and 5% CO2. Then medium was removed, and cells were exposed to the 100 µL of the compound solutions over a range of concentrations (final DMSO concentration was below 0.2%) or nothing but culture medium (blank control). Pure DMSO was used as a positive control. After 24 h of incubation with the compound solutions, medium was removed and 50 µL of the MTT solution was added to each well and incubated in the dark for additional 2 h at 37 °C. Then the MTT solution was carefully removed and 100 µL of DMSO was added. Plates were incubated for 10 min at room temperature. Finally, 5 µL of Sorensen Buffer was added to each well. Plate was swayed, and the absorbance was measured by using microplate reader (Synergy H1, BioTek, Winooski, VT, USA) at a wavelength of 570 nm. The cell viability was expressed as a percentage of the control values (blank). The experiments were done in triplicate.

[3] = system: HT-29 cells; assay: Cell cycle analysis (PI, flow cytometry), HT-29; conditions: HT-29, 24 h, 10 µM
Description: (§4) Then, compounds were added into the wells and cells were further incubated for 24 h. After incubation, monolayer and supernatant cells were harvested and washed in PBS. Then, cells were centrifuged (monolayer—1200 rpm for 10 min, supernatant 3500 rpm for 10 min) and fixed in cold 70% ethanol. Pellets were kept at 4 °C for at least 2 h. Prior to analysis, cells were centrifuged and re-suspended in RNAsi (type 1-A; Sigma Aldrich)—PBS working solution (200 µg/mL). Samples were incubated at 37 °C for 10 min. At the end, 3 µL of 2 mg/mL propidium iodide (PI) (Sigma Aldrich) solution was added to each sample. Samples were kept in the dark prior to analysis. Analysis was performed on BD Accuri C6 Flow Cytometry (Becton–Dickinson). Etoposide (Calbiochem) was used as a reference drug. Experiments were done in triplicates.

[4] = system: HT-29 cells; assay: Apoptosis assay by annexin-V/PI double staining, HT-29; conditions: HT-29, 24 h, 25 µM; control 8.62%
Description: as §1

[5] = system: A549 cells; assay: Cell cycle analysis (PI, flow cytometry), A549; conditions: A549, 24 h, 10 µM
Description: as §4

[6] = system: EA.hy926 cells; assay: MTT cytotoxicity assay, EA.hy926; conditions: Homo sapiens, EA.hy 926, 24 h, MTT, 24 h incubation; read-out: IC50 µM ± SD against EA.hy926
Description: The EA.hy926 cells (the human umbilical vein, somatic cell hybrid) (American Type Culture Collection) are immortalized human umbilical vein endothelial cells. They have morphological, phenotypic and functional characteristics of human endothelial cells, without the limited lifespan. This cell line has been considered as a good model for anticancer drug screening and was chosen to evaluate the endothelial cytotoxicity of novel compounds.
as §2, §3

COc1cc([C@@H]2c3cc4c(cc3[C@@H](O[C@@H]3O[C@@H]5CO[C@@H](C)O[C@H]5[C@H](O)[C@H]3O)[C@H]3COC(=O)[C@H]23)OCO4)cc(OC)c1O [Etoposide, reference compound]
Total apoptotic cells [1]: 43.46%
IC50 [2]: 451 ± 18.3 µM
Cells in G2/M phase [3]: 73.84%
Total apoptotic cells [4]: 18.18%
Cells in G0/G1 phase [5]: 27.31%
Cells in G2/M phase [5]: 66.02%
Cells in S phase [5]: 6.67%
IC50 [6]: 155 ± 9.81 µM
